Key:
T-cell [1] = experiment: CD25 cell surface staining on T-cells co-stimulated with anti-CD3 and anti-CD28 antibody (Biological Example 2); type: cell-based, human; settings: Homo sapiens, T-cell, fold change over baseline, primary human total T-cells, read-out: CD25 staining Anti-CD3/Anti-CD28 stimulation; for fold induction at 0.3 µM: 0.3 μM Cbl-b inhibitor; for fold induction at 1 µM: 1 μM Cbl-b inhibitor; for fold induction at 4 µM: 4 μM Cbl-b inhibitor
Method in brief: (§1)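 T-cells were stimulated with anti-CD3 antibody alone or with anti-CD28 antibody, in the presence or absence of Cbl-b inhibitor. IL-2 secretion or CD25 surface staining was measured, and values expressed as fold over the uninhibited baseline […].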

Cbl-b [2] = biological target: T1, Cbl-b (Homo sapiens, UniProt Q13191); experiment: Cbl-b activity assay (Cbl-b inhibition assay), TR-FRET of Cbl-b interaction with UbcH5B-Ub; type: biochemical; settings: assay buffer with 100 mM NaCl, 60 nM Src kinase; read-out: Cbl-b activity IC50
T1 sequence (Q13191 36-427): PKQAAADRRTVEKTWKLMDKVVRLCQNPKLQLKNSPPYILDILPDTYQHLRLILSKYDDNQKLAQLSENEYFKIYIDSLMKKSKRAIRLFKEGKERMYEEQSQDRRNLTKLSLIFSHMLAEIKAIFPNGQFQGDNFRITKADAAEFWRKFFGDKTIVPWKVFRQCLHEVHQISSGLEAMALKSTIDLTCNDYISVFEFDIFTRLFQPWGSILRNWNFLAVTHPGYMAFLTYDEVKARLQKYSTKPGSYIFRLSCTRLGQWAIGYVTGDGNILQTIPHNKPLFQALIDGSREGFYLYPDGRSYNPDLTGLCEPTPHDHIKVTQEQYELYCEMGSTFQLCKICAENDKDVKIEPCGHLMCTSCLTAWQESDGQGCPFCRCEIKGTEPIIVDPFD
Method in brief: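 UbcH5B (C85K) conjugated to N-terminally Bodipy-Fluorescein-labeled ubiquitin served as the fluorescent partner. After compound preincubation, Src kinase (60 nM) with 1 mM ATP and 5 mM MgCl2 (final) was added for 1.5 h, followed by a further 1 h incubation. Some values were obtained with 50 mM NaCl and 30 nM Src.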

T-cell [3] = experiment: IL-2 secretion from T-cells stimulated with anti-CD3 antibody alone (Biological Example 2); type: cell-based, human; settings: T-cell, fold change over baseline, primary human total T-cells, read-out: IL-2 secretion Anti-CD3 stimulation; for fold induction at 1 µM: 1 μM Cbl-b inhibitor; for fold induction at 8 µM: 8 μM Cbl-b inhibitor
T-cell [4] = experiment: IL-2 secretion from T-cells co-stimulated with anti-CD3 and anti-CD28 antibody (Biological Example 2); type: cell-based, human; settings: Homo sapiens, T-cell, fold change over baseline, primary human total T-cells, read-out: IL-2 secretion Anti-CD3/Anti-CD28 stimulation; for fold induction at 0.3 µM: 0.3 μM Cbl-b inhibitor; for fold induction at 1 µM: 1 μM Cbl-b inhibitor; for fold induction at 4 µM: 4 μM Cbl-b inhibitor
Method in brief: as §1

Cbl-b [5] = biological target: T1, Cbl-b; experiment: Cbl-b inhibition assay (Cbl-b activity assay, FRET, Biological Example 1; 100 mM NaCl, 60 nM Src kinase); type: biochemical; settings: upper bound stated in text lists; read-out: IC50 values in the Cbl-b inhibition assay of Biological Example 1
Method in brief: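 TR-FRET assay using N-terminal biotinylated Avi-tagged Cbl-b bound to streptavidin-terbium, Src kinase for Cbl-b phosphorylation, and UbcH5B irreversibly conjugated to Bodipy-Fluorescein-ubiquitin. Phosphorylated Cbl-b binds UbcH5B-Ub, bringing the fluorophores together; inhibition is read as loss of FRET signal.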

Row | Compound | fold induction at 0.3 µM (T-cell [1]) | fold induction at 1 µM (T-cell [1]) | fold induction at 4 µM (T-cell [1]) | IC50 (Cbl-b [2]) [nM] | fold induction at 1 µM (T-cell [3]) | fold induction at 8 µM (T-cell [3]) | fold induction at 0.3 µM (T-cell [4]) | fold induction at 1 µM (T-cell [4]) | fold induction at 4 µM (T-cell [4]) | IC50 (Cbl-b [5]) [nM]
1 | C[C@H](Cc1nncn1C)c1cccc(NC(=O)c2cccc(C(F)(F)F)n2)c1 [Compound 183a, (R)-N-(3-(1-(4-methyl-4H-1,2,4-triazol-3-yl)propan-2-yl)phenyl)-6-(trifluoromethyl)picolinamide] | > 1.76 | > 1.76 | > 1.76 | < 100 | > 0.201 | > 0.201 | 2.51 to 5 | 5 to 7.5 | > 7.5 | ≤ 100
2 | C[C@H](Cc1nncn1C)c1cccc(NC(=O)c2cc(C3CC3)cc(C(F)(F)F)n2)c1 [Compound 191, (R)-4-cyclopropyl-N-(3-(1-(4-methyl-4H-1,2,4-triazol-3-yl)propan-2-yl)phenyl)-6-(trifluoromethyl)picolinamide] | 1.31 to 1.5 | 1.51 to 1.75 | 1.51 to 1.75 | < 100 | > 0.201 | > 0.201 | 2.51 to 5 | 5 to 7.5 | > 7.5 | ≤ 100
3 | C[C@H](Cc1nncn1C)c1cccc(NC(=O)c2cc(C3CC3)nc(C3CC3)n2)c1 [Compound 193, (R)-2,6-dicyclopropyl-N-(3-(1-(4-methyl-4H-1,2,4-triazol-3-yl)propan-2-yl)phenyl)pyrimidine-4-carboxamide] | 1.01 to 1.3 | 1.51 to 1.75 | 1.51 to 1.75 | < 100 | > 0.201 | > 0.201 | 2.51 to 5 | 5 to 7.5 | > 7.5 | ≤ 100
4 | Cc1cc(C(=O)Nc2cccc([C@H](C)Cc3nncn3C)c2)nc(C(F)(F)F)n1 [Compound 194, (R)-6-methyl-N-(3-(1-(4-methyl-4H-1,2,4-triazol-3-yl)propan-2-yl)phenyl)-2-(trifluoromethyl)pyrimidine-4-carboxamide] | 1.01 to 1.3 | 1.51 to 1.75 | > 1.76 | < 100 | > 0.201 | > 0.201 | 2.51 to 5 | > 7.5 | > 7.5 | ≤ 100
5 | Cc1cc(C(=O)Nc2cccc([C@H](C)Cc3nncn3C)c2)nc(C2CC2)n1 [Compound 195, (R)-2-cyclopropyl-6-methyl-N-(3-(1-(4-methyl-4H-1,2,4-triazol-3-yl)propan-2-yl)phenyl)pyrimidine-4-carboxamide] | 1.51 to 1.75 | > 1.76 | > 1.76 | < 100 | > 0.201 | > 0.201 | 5 to 7.5 | > 7.5 | > 7.5 | ≤ 100
6 | C[C@H](Cc1nncn1C)c1cccc(NC(=O)c2nc3c(C(F)(F)F)cccc3[nH]2)c1 [Compound 196, N-[3-[(1R)-1-methyl-2-(4-methyl-1,2,4-triazol-3-yl)ethyl]phenyl]-4-(trifluoromethyl)-1H-benzimidazole-2-carboxamide] | 1.01 to 1.3 | 1.51 to 1.75 | > 1.76 | < 100 | > 0.201 | > 0.201 | 2.51 to 5 | 5 to 7.5 | > 7.5 | ≤ 100
7 | C[C@H](Cc1nncn1C)c1cccc(NC(=O)c2ccnc(C3CC3)n2)c1 [Compound 199, (R)-2-cyclopropyl-N-(3-(1-(4-methyl-4H-1,2,4-triazol-3-yl)propan-2-yl)phenyl)pyrimidine-4-carboxamide] | 1.01 to 1.3 | 1.31 to 1.5 | 1.51 to 1.75 | < 100 | > 0.201 | > 0.201 | 2.51 to 5 | 5 to 7.5 | > 7.5 | ≤ 100

Source: patent US20220324835A1 (Nurix Therapeutics, Inc., priority 2018, published 2022)
